Experimental data taken from patent publication US20090181963A1, “3H-[1,2,3]TRIAZOLO[4,5-D]PYRIMIDINE COMPOUNDS, THEIR USE AS mTOR KINASE AND PI3 KINASE INHIBITORS, AND THEIR [sequence]” (Wyeth, priority 2008, published 2009).

Assays:
PI3 Kinase γ = PI3 Kinase γ (Homo sapiens, UniProt P48736); experiment: Fluorescence polarization assay for PI3K (PI3 Kinase γ); format: biochemical; conditions: diC8-PI(4,5)P2 substrate, 25 μM ATP, one hour at 25° C.
PI3 Kinase α = PI3 Kinase α (Homo sapiens, UniProt P42336); experiment: Fluorescence polarization assay for PI3K (PI3 Kinase α); format: biochemical; conditions: diC8-PI(4,5)P2 substrate, 25 μM ATP, one hour at 25° C.
Sequence of PI3 Kinase α (P42336 whole entry): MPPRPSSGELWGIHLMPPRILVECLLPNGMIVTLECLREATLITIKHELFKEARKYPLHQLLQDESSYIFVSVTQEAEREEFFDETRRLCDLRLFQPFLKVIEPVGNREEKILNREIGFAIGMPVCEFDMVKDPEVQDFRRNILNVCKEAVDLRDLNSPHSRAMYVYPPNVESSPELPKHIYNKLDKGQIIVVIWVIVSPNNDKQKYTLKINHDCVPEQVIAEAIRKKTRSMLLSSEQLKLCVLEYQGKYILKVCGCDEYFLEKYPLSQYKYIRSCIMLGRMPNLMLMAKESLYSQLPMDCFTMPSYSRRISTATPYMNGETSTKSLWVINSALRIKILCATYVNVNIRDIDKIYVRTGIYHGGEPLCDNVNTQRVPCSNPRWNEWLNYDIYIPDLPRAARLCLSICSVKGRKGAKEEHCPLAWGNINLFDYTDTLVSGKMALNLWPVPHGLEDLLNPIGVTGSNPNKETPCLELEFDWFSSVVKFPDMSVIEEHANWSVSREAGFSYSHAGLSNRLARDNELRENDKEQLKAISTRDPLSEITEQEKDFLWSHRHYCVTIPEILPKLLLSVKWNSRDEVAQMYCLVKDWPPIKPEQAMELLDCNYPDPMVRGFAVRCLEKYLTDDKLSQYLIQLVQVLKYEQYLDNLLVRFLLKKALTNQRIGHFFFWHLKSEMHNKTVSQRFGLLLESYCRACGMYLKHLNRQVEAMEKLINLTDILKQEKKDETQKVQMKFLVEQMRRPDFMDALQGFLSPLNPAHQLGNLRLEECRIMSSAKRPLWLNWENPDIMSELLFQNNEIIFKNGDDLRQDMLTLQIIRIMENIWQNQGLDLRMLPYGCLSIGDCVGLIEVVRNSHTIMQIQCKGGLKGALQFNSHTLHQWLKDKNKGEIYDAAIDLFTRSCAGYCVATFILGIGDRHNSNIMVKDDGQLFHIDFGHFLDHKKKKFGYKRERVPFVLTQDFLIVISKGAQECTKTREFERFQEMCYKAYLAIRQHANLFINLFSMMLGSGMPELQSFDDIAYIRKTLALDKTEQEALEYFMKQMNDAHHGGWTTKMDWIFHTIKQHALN
Sequence of PI3 Kinase α (P27986 whole entry partner): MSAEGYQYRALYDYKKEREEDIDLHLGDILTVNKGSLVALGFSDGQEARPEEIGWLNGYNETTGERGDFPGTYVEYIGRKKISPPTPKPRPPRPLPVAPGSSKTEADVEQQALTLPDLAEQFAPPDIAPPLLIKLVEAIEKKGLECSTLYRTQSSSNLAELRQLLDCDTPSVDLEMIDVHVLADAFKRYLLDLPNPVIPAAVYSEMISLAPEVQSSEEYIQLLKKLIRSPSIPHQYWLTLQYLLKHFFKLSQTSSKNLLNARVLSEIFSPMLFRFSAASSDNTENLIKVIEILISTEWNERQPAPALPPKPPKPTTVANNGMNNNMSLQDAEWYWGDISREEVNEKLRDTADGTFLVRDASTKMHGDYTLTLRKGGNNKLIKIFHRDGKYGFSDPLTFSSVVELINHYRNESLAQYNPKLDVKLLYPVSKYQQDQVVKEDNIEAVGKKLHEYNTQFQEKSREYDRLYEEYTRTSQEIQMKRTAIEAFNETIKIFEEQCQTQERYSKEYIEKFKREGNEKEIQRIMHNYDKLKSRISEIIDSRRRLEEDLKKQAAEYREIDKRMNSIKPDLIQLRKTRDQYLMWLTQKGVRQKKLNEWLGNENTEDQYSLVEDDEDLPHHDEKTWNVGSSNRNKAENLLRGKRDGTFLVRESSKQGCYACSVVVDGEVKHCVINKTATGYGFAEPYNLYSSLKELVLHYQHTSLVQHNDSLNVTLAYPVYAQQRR

Sequence of PI3 Kinase γ (P48736 whole entry): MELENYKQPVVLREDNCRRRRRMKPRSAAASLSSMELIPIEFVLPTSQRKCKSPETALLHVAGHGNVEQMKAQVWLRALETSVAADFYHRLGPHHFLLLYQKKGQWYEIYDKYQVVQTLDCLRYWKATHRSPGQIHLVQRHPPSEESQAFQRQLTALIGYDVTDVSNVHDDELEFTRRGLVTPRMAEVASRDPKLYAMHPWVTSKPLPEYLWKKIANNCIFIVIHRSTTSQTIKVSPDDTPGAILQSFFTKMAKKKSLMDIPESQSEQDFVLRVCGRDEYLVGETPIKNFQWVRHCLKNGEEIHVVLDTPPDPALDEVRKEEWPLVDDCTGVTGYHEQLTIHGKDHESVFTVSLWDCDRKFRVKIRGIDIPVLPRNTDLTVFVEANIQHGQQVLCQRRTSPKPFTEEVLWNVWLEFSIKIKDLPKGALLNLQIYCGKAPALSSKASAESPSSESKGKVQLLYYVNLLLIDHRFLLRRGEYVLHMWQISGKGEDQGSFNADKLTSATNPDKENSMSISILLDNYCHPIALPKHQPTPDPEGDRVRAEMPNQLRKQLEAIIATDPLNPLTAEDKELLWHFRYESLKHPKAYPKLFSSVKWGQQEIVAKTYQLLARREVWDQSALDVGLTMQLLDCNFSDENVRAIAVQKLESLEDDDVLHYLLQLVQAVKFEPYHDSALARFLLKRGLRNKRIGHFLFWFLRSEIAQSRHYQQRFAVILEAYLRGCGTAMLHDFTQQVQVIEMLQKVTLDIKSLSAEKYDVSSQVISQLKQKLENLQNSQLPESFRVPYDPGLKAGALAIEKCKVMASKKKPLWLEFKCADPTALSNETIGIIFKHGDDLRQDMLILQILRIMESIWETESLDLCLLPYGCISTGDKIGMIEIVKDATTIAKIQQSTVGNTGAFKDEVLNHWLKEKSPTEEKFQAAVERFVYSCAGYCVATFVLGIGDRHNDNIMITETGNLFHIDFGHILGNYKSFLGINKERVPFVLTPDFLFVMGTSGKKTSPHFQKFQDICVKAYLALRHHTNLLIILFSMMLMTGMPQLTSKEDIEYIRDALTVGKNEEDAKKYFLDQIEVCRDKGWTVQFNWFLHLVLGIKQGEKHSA

## O=C(Nc1ccccc1)Nc1ccc(-c2nc(N3CCOCC3)c3nnn(CC4CN(Cc5ccccc5)C4)c3n2)cc1 [Example 191, 1-(4-{3-[(1-benzylazetidin-3-yl)methyl]-7-morpholin-4-yl-3H-[1,2,3]triazolo[4,5-d]pyrimidin-5-yl}phenyl)-3-phenylurea]
PI3 Kinase γ
  IC50: 329 nM
PI3 Kinase α
  IC50: 91 nM

## O=C(Nc1ccccc1)Nc1ccc(-c2nc(N3CCOCC3)c3nnn(CC4CN(Cc5ccc(F)cc5)C4)c3n2)cc1 [Example 192, 1-[4-(3-{[1-(4-fluorobenzyl)azetidin-3-yl]methyl}-7-morpholin-4-yl-3H-[1,2,3]triazolo[4,5-d]pyrimidin-5-yl)phenyl]-3-phenylurea]
PI3 Kinase γ
  IC50: 549 nM
PI3 Kinase α
  IC50: 148 nM

## O=C(Nc1ccccc1)Nc1ccc(-c2nc(N3CCOCC3)c3nnn(CC4CN(Cc5ccc(-c6ccncc6)cc5)C4)c3n2)cc1 [Example 193, 1-[4-(7-Morpholin-4-yl-3-{[1-(4-pyridin-4-ylbenzyl)azetidin-3-yl]methyl}-3H-[1,2,3]triazolo[4,5-d]pyrimidin-5-yl)phenyl]-3-phenylurea]
PI3 Kinase γ
  IC50: 408 nM
PI3 Kinase α
  IC50: 68 nM

## CN(C)CCCOc1ccc(CN2CC(Cn3nnc4c(N5CCOCC5)nc(-c5ccc(NC(=O)Nc6ccccc6)cc5)nc43)C2)cc1 [Example 194, 1-(4-{3-[(1-{4-[3-(Dimethylamino)propoxy]benzyl}azetidin-3-yl)methyl]-7-morpholin-4-yl-3H-[1,2,3]triazolo[4,5-d]pyrimidin-5-yl}phenyl)-3-phenylurea]
PI3 Kinase γ
  IC50: 210 nM
PI3 Kinase α
  IC50: 31 nM

## Oc1cccc(-c2nc(N3CCOCC3)c3nnn(CCN4CCCCC4)c3n2)c1 [Example 195, 3-[7-Morpholin-4-yl-3-(2-piperidin-1-ylethyl)-3H-[1,2,3]triazolo[4,5-d]pyrimidin-5-yl]phenol]
PI3 Kinase γ
  IC50: 5210 nM
PI3 Kinase α
  IC50: 689 nM

## Oc1cccc(-c2nc(N3CCOCC3)c3nnn(CCc4ccccn4)c3n2)c1 [Example 196, 3-[7-Morpholin-4-yl-3-(2-pyridin-2-yl-ethyl)-3H-[1,2,3]triazolo[4,5-d]pyrimidin-5-yl]-phenol]
PI3 Kinase γ
  IC50: 1060 nM
PI3 Kinase α
  IC50: 75.5 nM

## O=C(Nc1ccc(Cn2nnc3c(N4CCOCC4)nc(-c4cccc(O)c4)nc32)cc1)c1ccc(Cl)cc1 [Example 197, 4-Chloro-N-(4-{[5-(3-hydroxyphenyl)-7-morpholin-4-yl-3H-[1,2,3]triazolo[4,5-d]pyrimidin-3-yl]methyl}phenyl)benzamide]
PI3 Kinase γ
  IC50: 220 nM
PI3 Kinase α
  IC50: 66 nM

## O=C(Nc1ccncc1)Nc1ccc(-c2nc(N3CCOCC3)c3nnn(C4CCOCC4)c3n2)cc1 [Example 198, 1-{4-[7-morpholin-4-yl-3-(tetrahydro-2H-pyran-4-yl)-3H-[1,2,3]triazolo[4,5-d]pyrimidin-5-yl]phenyl}-3-pyridin-4-ylurea]
PI3 Kinase γ
  IC50: 43 nM
PI3 Kinase α
  IC50: 10 nM

## Cn1nnc2c(N3CCOCC3)nc(-c3ccc(NC(=O)Nc4cccnc4)cc3)nc21 [Example 199, 1-[4-(3-methyl-7-morpholin-4-yl-3H-[1,2,3]triazolo[4,5-d]pyrimidin-5-yl)phenyl]-3-pyridin-3-ylurea]
PI3 Kinase γ
  IC50: 49 nM
PI3 Kinase α
  IC50: 10.5 nM

## Cn1nnc2c(N3CCOCC3)nc(-c3ccc(NC(=O)Nc4cccs4)cc3)nc21 [Example 200, 1-[4-(3-methyl-7-morpholin-4-yl-3H-[1,2,3]triazolo[4,5-d]pyrimidin-5-yl)phenyl]-3-(2-thienyl)urea]
PI3 Kinase γ
  IC50: 22 nM
PI3 Kinase α
  IC50: 6.5 nM

## CN(C)CCCCn1nnc2c(N3CCOCC3)nc(-c3cccc(O)c3)nc21 [Example 202, 3-{3-[4-(dimethylamino)butyl]-7-morpholin-4-yl-3H-[1,2,3]triazolo[4,5-d]pyrimidin-5-yl}phenol]
PI3 Kinase γ
  IC50: 780 nM
PI3 Kinase α
  IC50: 224 nM

## CNCCCCn1nnc2c(N3CCOCC3)nc(-c3cccc(O)c3)nc21 [Example 203, 3-{3-[4-(Methylamino)butyl]-7-morpholin-4-yl-3H-[1,2,3]triazolo[4,5-d]pyrimidin-5-yl}phenol]
PI3 Kinase γ
  IC50: 618 nM
PI3 Kinase α
  IC50: 100 nM

## NCCCCn1nnc2c(N3CCOCC3)nc(-c3cccc(O)c3)nc21 [Example 204, 3-[3-(4-Aminobutyl)-7-morpholin-4-yl-3H-[1,2,3]triazolo[4,5-d]pyrimidin-5-yl]phenol]
PI3 Kinase γ
  IC50: 108 nM
PI3 Kinase α
  IC50: 132 nM

## Oc1cccc(-c2nc(N3CCOCC3)c3nnn(CCCCN4CCCC4)c3n2)c1 [Example 205, 3-[7-Morpholin-4-yl-3-(4-pyrrolidin-1-ylbutyl)-3H-[1,2,3]triazolo[4,5-d]pyrimidin-5-yl]phenol]
PI3 Kinase γ
  IC50: 1210 nM
PI3 Kinase α
  IC50: 332 nM

## CNC(=O)c1ccc(Cn2nnc3c(N4CCOCC4)nc(-c4cccc(O)c4)nc32)cc1 [Example 207, 4-{[5-(3-hydroxyphenyl)-7-morpholin-4-yl-3H-[1,2,3]triazolo[4,5-d]pyrimidin-3-yl]methyl}-N-methylbenzamide]
PI3 Kinase γ
  IC50: 2640 nM
PI3 Kinase α
  IC50: 342 nM

## CC(C)(C)OC(=O)N1CCC(NC(=O)c2ccc(Cn3nnc4c(N5CCOCC5)nc(-c5cccc(O)c5)nc43)cc2)CC1 [Example 208, tert-butyl 4-[(4-{[5-(3-hydroxyphenyl)-7-morpholin-4-yl-3H-[1,2,3]triazolo[4,5-d]pyrimidin-3-yl]methyl}benzoyl)amino]piperidine-1-carboxylate]
PI3 Kinase γ
  IC50: 1360 nM
PI3 Kinase α
  IC50: 122 nM

## CC(C)(C)OC(=O)NC1CCN(C(=O)c2ccc(Cn3nnc4c(N5CCOCC5)nc(-c5cccc(O)c5)nc43)cc2)CC1 [Example 209, tert-butyl [1-(4-{[5-(3-hydroxyphenyl)-7-morpholin-4-yl-3H-[1,2,3]triazolo[4,5-d]pyrimidin-3-yl]methyl}benzoyl)piperidin-4-yl]carbamate]
PI3 Kinase γ
  IC50: 1670 nM
PI3 Kinase α
  IC50: 447 nM

## CC(=O)NCCNC(=O)c1ccc(Cn2nnc3c(N4CCOCC4)nc(-c4cccc(O)c4)nc32)cc1 [Example 210, N-(2-acetamidoethyl)-4-{[5-(3-hydroxyphenyl)-7-morpholin-4-yl-3H-[1,2,3]triazolo[4,5-d]pyrimidin-3-yl]methyl}benzamide]
PI3 Kinase γ
  IC50: 782 nM
PI3 Kinase α
  IC50: 692 nM

## O=C(NCCCN1CCCC1)c1ccc(Cn2nnc3c(N4CCOCC4)nc(-c4cccc(O)c4)nc32)cc1 [Example 211, 4-{[5-(3-hydroxyphenyl)-7-morpholin-4-yl-3H-[1,2,3]triazolo[4,5-d]pyrimidin-3-yl]methyl}-N-(3-pyrrolidin-1-ylpropyl)benzamide]
PI3 Kinase γ
  IC50: 2730 nM
PI3 Kinase α
  IC50: 289 nM

## O=C(NCc1ccccc1)c1ccc(Cn2nnc3c(N4CCOCC4)nc(-c4cccc(O)c4)nc32)cc1 [Example 212, N-benzyl-4-{[5-(3-hydroxyphenyl)-7-morpholin-4-yl-3H-[1,2,3]triazolo[4,5-d]pyrimidin-3-yl]methyl}benzamide]
PI3 Kinase γ
  IC50: 766 nM
PI3 Kinase α
  IC50: 78 nM

## O=C(NCCN1CCCC1)c1ccc(Cn2nnc3c(N4CCOCC4)nc(-c4cccc(O)c4)nc32)cc1 [Example 213, 4-{[5-(3-hydroxyphenyl)-7-morpholin-4-yl-3H-[1,2,3]triazolo[4,5-d]pyrimidin-3-yl]methyl}-N-(2-pyrrolidin-1-ylethyl)benzamide]
PI3 Kinase γ
  IC50: 1380 nM
PI3 Kinase α
  IC50: 282 nM

## CN(C)CCNC(=O)c1ccc(Cn2nnc3c(N4CCOCC4)nc(-c4cccc(O)c4)nc32)cc1 [Example 214, N-[2-(dimethylamino)ethyl]-4-{[5-(3-hydroxyphenyl)-7-morpholin-4-yl-3H-[1,2,3]triazolo[4,5-d]pyrimidin-3-yl]methyl}benzamide]
PI3 Kinase γ
  IC50: 1540 nM
PI3 Kinase α
  IC50: 386 nM

## CN(C)CCCNC(=O)c1ccc(Cn2nnc3c(N4CCOCC4)nc(-c4cccc(O)c4)nc32)cc1 [Example 215, N-[3-(dimethylamino)propyl]-4-{[5-(3-hydroxyphenyl)-7-morpholin-4-yl-3H-[1,2,3]triazolo[4,5-d]pyrimidin-3-yl]methyl}benzamide]
PI3 Kinase γ
  IC50: 4030 nM
PI3 Kinase α
  IC50: 335 nM

## O=C(Nc1cccnc1)c1ccc(Cn2nnc3c(N4CCOCC4)nc(-c4cccc(O)c4)nc32)cc1 [Example 216, 4-{[5-(3-hydroxyphenyl)-7-morpholin-4-yl-3H-[1,2,3]triazolo[4,5-d]pyrimidin-3-yl]methyl}-N-pyridin-3-ylbenzamide]
PI3 Kinase γ
  IC50: 361 nM
PI3 Kinase α
  IC50: 58 nM

## O=C(Nc1ccc(F)cc1)c1ccc(Cn2nnc3c(N4CCOCC4)nc(-c4cccc(O)c4)nc32)cc1 [Example 217, N-(4-fluorophenyl)-4-{[5-(3-hydroxyphenyl)-7-morpholin-4-yl-3H-[1,2,3]triazolo[4,5-d]pyrimidin-3-yl]methyl}benzamide]
PI3 Kinase γ
  IC50: 240 nM
PI3 Kinase α
  IC50: 240 nM

## CC(C)(C)OC(=O)N1CCN(c2ccc(NC(=O)c3ccc(Cn4nnc5c(N6CCOCC6)nc(-c6cccc(O)c6)nc54)cc3)cc2)CC1 [Example 218, tert-Butyl 4-{4-[(4-{[5-(3-hydroxyphenyl)-7-morpholin-4-yl-3H-[1,2,3]triazolo[4,5-d]pyrimidin-3-yl]methyl}benzoyl)amino]phenyl}piperazine-1-carboxylate]
PI3 Kinase γ
  IC50: 8080 nM
PI3 Kinase α
  IC50: 71 nM

## CCNC(=O)c1ccc(Cn2nnc3c(N4CCOCC4)nc(-c4cccc(O)c4)nc32)cc1 [Example 219, N-ethyl-4-{[5-(3-hydroxyphenyl)-7-morpholin-4-yl-3H-[1,2,3]triazolo[4,5-d]pyrimidin-3-yl]methyl}benzamide]
PI3 Kinase γ
  IC50: 1840 nM
PI3 Kinase α
  IC50: 260 nM

## CCN(CC)C(=O)c1ccc(Cn2nnc3c(N4CCOCC4)nc(-c4cccc(O)c4)nc32)cc1 [Example 220, N,N-diethyl-4-{[5-(3-hydroxyphenyl)-7-morpholin-4-yl-3H-[1,2,3]triazolo[4,5-d]pyrimidin-3-yl]methyl}benzamide]
PI3 Kinase γ
  IC50: 2420 nM
PI3 Kinase α
  IC50: 1150 nM

## O=C(NC1CC1)c1ccc(Cn2nnc3c(N4CCOCC4)nc(-c4cccc(O)c4)nc32)cc1 [Example 221, N-cyclopropyl-4-{[5-(3-hydroxyphenyl)-7-morpholin-4-yl-3H-[1,2,3]triazolo[4,5-d]pyrimidin-3-yl]methyl}benzamide]
PI3 Kinase γ
  IC50: 1180 nM
PI3 Kinase α
  IC50: 303 nM

## CC(C)(C)NC(=O)c1ccc(Cn2nnc3c(N4CCOCC4)nc(-c4cccc(O)c4)nc32)cc1 [Example 222, N-tert-butyl-4-{[5-(3-hydroxyphenyl)-7-morpholin-4-yl-3H-[1,2,3]triazolo[4,5-d]pyrimidin-3-yl]methyl}benzamide]
PI3 Kinase γ
  IC50: 1400 nM
PI3 Kinase α
  IC50: 420 nM
